Measurements taken from PubChem BioAssay (NCI).
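Dose response: 5 concentrations. Exposure: 48 h. Format: 96-well plates. Endpoint: linear interpolation; highest concentration if not reached. TGI marks complete inhibition of growth.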

How the values were obtained:
Assay in all cases: growth of human tumour cells (NCI), 48 h
UACC-257 melanoma = system: UACC-257 melanoma
U251 CNS = system: U251 CNS
SK-MEL-5 melanoma = system: SK-MEL-5 melanoma
PC-3 prostate = system: PC-3 prostate
HOP-62 NSCLC = system: HOP-62 NSCLC
786-0 renal = system: 786-0 renal
SF-539 CNS = system: SF-539 CNS
SNB-19 CNS = system: SNB-19 CNS
SN12C renal = system: SN12C renal
NCI-H460 lung = system: NCI-H460 lung
CCRF-CEM leukemia = system: CCRF-CEM leukemia
HS 578T breast = system: HS 578T breast
ACHN renal = system: ACHN renal
OVCAR-3 ovarian = system: OVCAR-3 ovarian
M14 melanoma = system: M14 melanoma
KM12 colon = system: KM12 colon
NCI/ADR-RES ovarian = system: NCI/ADR-RES ovarian
IGROV1 ovarian = system: IGROV1 ovarian
BT-549 breast = system: BT-549 breast
SF-268 CNS = system: SF-268 CNS
T-47D breast = system: T-47D breast
MDA-N = system: MDA-N
COLO 205 colon = system: COLO 205 colon
CAKI-1 renal = system: CAKI-1 renal
MALME-3M melanoma = system: MALME-3M melanoma
HL-60(TB) leukemia = system: HL-60(TB) leukemia
OVCAR-4 ovarian = system: OVCAR-4 ovarian
UACC-62 melanoma = system: UACC-62 melanoma
SF-295 CNS = system: SF-295 CNS
MDA-MB-231 breast = system: MDA-MB-231 breast
NCI-H522 lung = system: NCI-H522 lung
LOX IMVI melanoma = system: LOX IMVI melanoma
MCF7 breast = system: MCF7 breast
HOP-92 NSCLC = system: HOP-92 NSCLC
MDA-MB-435 = system: MDA-MB-435
SW-620 colon = system: SW-620 colon
OVCAR-8 ovarian = system: OVCAR-8 ovarian
SNB-75 CNS = system: SNB-75 CNS
RPMI-8226 leukemia = system: RPMI-8226 leukemia
TK-10 renal = system: TK-10 renal
DU-145 prostate = system: DU-145 prostate
RXF 393 renal = system: RXF 393 renal
HCT-15 colon = system: HCT-15 colon
HT29 colon = system: HT29 colon
SK-MEL-28 melanoma = system: SK-MEL-28 melanoma
K-562 leukemia = system: K-562 leukemia
SK-MEL-2 melanoma = system: SK-MEL-2 melanoma
MOLT-4 leukemia = system: MOLT-4 leukemia
HCT-116 colon = system: HCT-116 colon
A549 NSCLC = system: A549 NSCLC
UO-31 renal = system: UO-31 renal
SK-OV-3 ovarian = system: SK-OV-3 ovarian
NCI-H23 lung = system: NCI-H23 lung
A498 renal = system: A498 renal
EKVX NSCLC = system: EKVX NSCLC
NCI-H226 lung = system: NCI-H226 lung
HCC-2998 colon = system: HCC-2998 colon
OVCAR-5 ovarian = system: OVCAR-5 ovarian
SR leukemia = system: SR leukemia

Measured: TGI

COc1ccc2c(c1)C(N)=C(Cc1ccncc1)C2=O
> 100 µM: UACC-257 melanoma | U251 CNS | SK-MEL-5 melanoma | PC-3 prostate | HOP-62 NSCLC | 786-0 renal | SF-539 CNS | SNB-19 CNS | SN12C renal | NCI-H460 lung | CCRF-CEM leukemia | HS 578T breast | ACHN renal | OVCAR-3 ovarian | M14 melanoma | KM12 colon | NCI/ADR-RES ovarian | IGROV1 ovarian | BT-549 breast | SF-268 CNS | T-47D breast | MDA-N | COLO 205 colon | CAKI-1 renal | MALME-3M melanoma | HL-60(TB) leukemia | OVCAR-4 ovarian | UACC-62 melanoma | SF-295 CNS | MDA-MB-231 breast | NCI-H522 lung | LOX IMVI melanoma | MCF7 breast | HOP-92 NSCLC | MDA-MB-435 | SW-620 colon | OVCAR-8 ovarian | SNB-75 CNS | RPMI-8226 leukemia | TK-10 renal | DU-145 prostate | RXF 393 renal | HCT-15 colon | HT29 colon | SK-MEL-28 melanoma | K-562 leukemia | SK-MEL-2 melanoma | MOLT-4 leukemia | HCT-116 colon | A549 NSCLC | UO-31 renal | SK-OV-3 ovarian | NCI-H23 lung | A498 renal | EKVX NSCLC

COC(=O)C1C(C(=O)OC)C1(Br)CBr (stereo not drawn)
44.3 µM: RPMI-8226 leukemia
51.5 µM: LOX IMVI melanoma
94.3 µM: BT-549 breast
61.8 µM: ACHN renal
46.8 µM: SR leukemia
21 µM: MOLT-4 leukemia
14.1 µM: NCI-H522 lung
34.9 µM: UO-31 renal
41 µM: COLO 205 colon
41.6 µM: RXF 393 renal
38.7 µM: HCT-15 colon
63.3 µM: HT29 colon
90.3 µM: EKVX NSCLC
79.4 µM: SN12C renal
31.6 µM: CAKI-1 renal
36.3 µM: 786-0 renal
> 100 µM: UACC-257 melanoma | U251 CNS | SK-MEL-5 melanoma | PC-3 prostate | NCI-H226 lung | HOP-62 NSCLC | SF-539 CNS | SNB-19 CNS | HCC-2998 colon | NCI-H460 lung | HS 578T breast | OVCAR-3 ovarian | M14 melanoma | KM12 colon | NCI/ADR-RES ovarian | IGROV1 ovarian | SF-268 CNS | MDA-N | HL-60(TB) leukemia | OVCAR-4 ovarian | UACC-62 melanoma | SF-295 CNS | MDA-MB-231 breast | OVCAR-5 ovarian | MCF7 breast | MDA-MB-435 | SW-620 colon | OVCAR-8 ovarian | SNB-75 CNS | TK-10 renal | DU-145 prostate | SK-MEL-28 melanoma | SK-MEL-2 melanoma | HCT-116 colon | A549 NSCLC | SK-OV-3 ovarian | NCI-H23 lung | A498 renal
54.9 µM: HOP-92 NSCLC
50.4 µM: T-47D breast

NC(=S)NS(=O)(=O)c1ccc(F)cc1F
> 100 µM: UACC-257 melanoma | U251 CNS | SK-MEL-5 melanoma | PC-3 prostate | NCI-H226 lung | HOP-62 NSCLC | 786-0 renal | SF-539 CNS | SNB-19 CNS | SN12C renal | HCC-2998 colon | NCI-H460 lung | CCRF-CEM leukemia | HS 578T breast | ACHN renal | OVCAR-3 ovarian | M14 melanoma | KM12 colon | NCI/ADR-RES ovarian | IGROV1 ovarian | BT-549 breast | SF-268 CNS | T-47D breast | MDA-N | COLO 205 colon | CAKI-1 renal | MALME-3M melanoma | HL-60(TB) leukemia | OVCAR-4 ovarian | UACC-62 melanoma | SF-295 CNS | MDA-MB-231 breast | NCI-H522 lung | OVCAR-5 ovarian | LOX IMVI melanoma | MCF7 breast | HOP-92 NSCLC | MDA-MB-435 | SW-620 colon | OVCAR-8 ovarian | SNB-75 CNS | RPMI-8226 leukemia | TK-10 renal | DU-145 prostate | RXF 393 renal | HCT-15 colon | HT29 colon | SK-MEL-28 melanoma | K-562 leukemia | SK-MEL-2 melanoma | MOLT-4 leukemia | HCT-116 colon | A549 NSCLC | SK-OV-3 ovarian | NCI-H23 lung | A498 renal | EKVX NSCLC
